This is an account of results in patent publication US8404679B2, “Pyrrolidine derivatives as NK2 receptor antagonists” (Hoffmann-La Roche Inc., priority 2008, dated 2013).

This assay addresses T1, human NK2 receptor (Homo sapiens, UniProt P21452).
T1 construct: purchased Perkin Elmer biosignal Inc. 6110510
T1 sequence (P21452 1-398): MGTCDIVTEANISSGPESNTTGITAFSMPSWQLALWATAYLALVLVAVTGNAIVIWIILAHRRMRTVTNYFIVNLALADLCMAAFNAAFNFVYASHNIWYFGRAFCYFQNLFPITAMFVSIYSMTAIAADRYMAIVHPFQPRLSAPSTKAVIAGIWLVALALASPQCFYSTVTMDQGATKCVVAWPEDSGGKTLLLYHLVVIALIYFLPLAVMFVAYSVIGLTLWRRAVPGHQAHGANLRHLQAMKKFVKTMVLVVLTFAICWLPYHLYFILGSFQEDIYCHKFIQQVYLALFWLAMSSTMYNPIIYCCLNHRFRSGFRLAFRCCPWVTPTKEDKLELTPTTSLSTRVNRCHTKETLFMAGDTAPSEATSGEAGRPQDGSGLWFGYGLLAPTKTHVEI
As to the kind of experiment: [3H]SR48968 competition binding assay. The note with it: [3H]SR48968 displacement, membranes of CHO cells stably expressing recombinant human NK2 receptor; Ki from IC50 by Cheng-Prussoff. In a few lines: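 Membranes from CHO cells stably expressing recombinant human NK2 were incubated 75 min at RT with [3H]SR48968 at its KD and 10 compound concentrations (0.0003–10 μM) in Tris-HCl pH 7.4, MnCl2, chymostatin, BSA. Filter-bound radioactivity was counted; Hill-fitted IC50 converted to Ki via Cheng-Prusoff.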

One may read the Ki as a dissociation constant, usually derived from enzyme kinetics or from competition with a known ligand. In the case of `CN(C(=O)c1ccc(F)c(OC(F)(F)F)c1)[C@H]1CN(C(=O)C2CCN(C(=O)C3(C)CC3)CC2)C[C@@H]1c1ccc(Cl)c(Cl)c1` (racemic) [Example 98, N-{(3RS,4SR)-4-(3,4-Dichloro-phenyl)-1-[1-(1-methyl-cyclopropanecarbonyl)-piperidine-4-carbonyl]-pyrrolidin-3-yl}-4-fluoro-N-methyl-3-trifluoromethoxy-benzamide], the Ki stood at 0.9 nM.
`COc1cc(C(=O)N(C)[C@H]2CN(C(=O)C3CCN(C(=O)C4(C)CC4)CC3)C[C@@H]2c2ccc(Cl)c(Cl)c2)ccc1Cl` (racemic) [Example 99, 4-Chloro-N-{(3RS,4SR)-4-(3,4-dichloro-phenyl)-1-[1-(1-methyl-cyclopropanecarbonyl)-piperidine-4-carbonyl]-pyrrolidin-3-yl}-3-methoxy-N-methyl-benzamide]: the Ki was found to be 0.9 nM.
Take `CN(C(=O)c1ccc(F)cc1)[C@H]1CN(C(=O)C2CCN(C(=O)C3(C)CC3)CC2)C[C@@H]1c1ccc(Cl)c(Cl)c1` (racemic) [Example 100, N-{(3RS,4SR)-4-(3,4-Dichloro-phenyl)-1-[1-(1-methyl-cyclopropanecarbonyl)-piperidine-4-carbonyl]-pyrrolidin-3-yl}-4-fluoro-N-methyl-benzamide]: the inhibition constant (Ki) turned out to be 2.3 nM.
As to `CN(C(=O)Cc1ccc(F)cc1)[C@H]1CN(C(=O)C2CCN(C(=O)C3(C)CC3)CC2)C[C@@H]1c1ccc(Cl)c(Cl)c1` (racemic) [Example 101, N-{(3RS,4SR)-4-(3,4-Dichloro-phenyl)-1-[1-(1-methyl-cyclopropanecarbonyl)-piperidine-4-carbonyl]-pyrrolidin-3-yl}-2-(4-fluoro-phenyl)-N-methyl-acetamide], the inhibitory constant (Ki) was determined as 16.2 nM.
The figure for `CN(C(=O)CCc1ccc(F)cc1)[C@H]1CN(C(=O)C2CCN(C(=O)C3(C)CC3)CC2)C[C@@H]1c1ccc(Cl)c(Cl)c1` (racemic) [Example 102, N-{(3RS,4SR)-4-(3,4-Dichloro-phenyl)-1-[1-(1-methyl-cyclopropanecarbonyl)-piperidine-4-carbonyl]-pyrrolidin-3-yl}-3-(4-fluoro-phenyl)-N-methyl-propionamide] is 2.4 nM.
The figure for `COc1ccc(C(=O)N(C)[C@H]2CN(C(=O)C3CCNCC3)C[C@@H]2c2ccc(Cl)cc2)cc1C(F)(F)F` (racemic) [Example 103, N-[(3RS,4SR)-4-(4-Chloro-phenyl)-1-(piperidine-4-carbonyl)-pyrrolidin-3-yl]-4-methoxy-N-methyl-3-trifluoromethyl-benzamide] is 7 nM; for `COc1ccc(C(=O)N(C)[C@H]2CN(C(=O)C3CCN(C(C)C)CC3)C[C@@H]2c2ccc(Cl)cc2)cc1C(F)(F)F` (racemic) [Example 104, N-[(3RS,4SR)-4-(4-Chloro-phenyl)-1-(1-isopropyl-piperidine-4-carbonyl)-pyrrolidin-3-yl]-4-methoxy-N-methyl-3-trifluoromethyl-benzamide] it is 4.1 nM; for `COc1ccc(C(=O)N(C)[C@H]2CN(C(=O)C3CCN(CC4CC4)CC3)C[C@@H]2c2ccc(Cl)cc2)cc1C(F)(F)F` (racemic) [Example 105, N-[(3RS,4SR)-4-(4-Chloro-phenyl)-1-(1-cyclopropylmethyl-piperidine-4-carbonyl)-pyrrolidin-3-yl]-4-methoxy-N-methyl-3-trifluoromethyl-benzamide] it is 0.8 nM.
The result for `CN(C(=O)c1ccc(Cl)cn1)[C@H]1CN(C(=O)C2CCN(C(=O)C3(C)CC3)CC2)C[C@@H]1c1ccc(Cl)c(Cl)c1` (racemic) [Example 108, 5-Chloro-pyridine-2-carboxylic acid {(3RS,4SR)-4-(3,4-dichloro-phenyl)-1-[1-(1-methyl-cyclopropanecarbonyl)-piperidine-4-carbonyl]-pyrrolidin-3-yl}-methyl-amide] reads 2.6 nM; that for `CN(C(=O)c1ccc(F)c(C#N)c1)[C@H]1CN(C(=O)C2CCN(C(=O)C3(C)CC3)CC2)C[C@@H]1c1ccc(Cl)c(Cl)c1` (racemic) [Example 109, 3-Cyano-N-{(3RS,4SR)-4-(3,4-dichloro-phenyl)-1-[1-(1-methyl-cyclopropanecarbonyl)-piperidine-4-carbonyl]-pyrrolidin-3-yl}-4-fluoro-N-methyl-benzamide], 0.8 nM; that for `COc1ccc(C(=O)N(C)[C@H]2CN(C(=O)C3CCN(CCC(F)(F)F)CC3)C[C@@H]2c2ccc(Cl)cc2)cc1C(F)(F)F` (racemic) [Example 110, N-{(3RS,4SR)-4-(4-Chloro-phenyl)-1-[1-(3,3,3-trifluoro-propyl)-piperidine-4-carbonyl]-pyrrolidin-3-yl}-4-methoxy-N-methyl-3-trifluoromethyl-benzamide], 0.8 nM.
On to `COc1ccc(C(=O)N(C)[C@H]2CN(C(=O)C3CCN(CCC(C)(C)C)CC3)C[C@@H]2c2ccc(Cl)cc2)cc1C(F)(F)F` (racemic) [Example 111, N-{(3RS,4SR)-4-(4-Chloro-phenyl)-1-[1-(3,3-dimethyl-butyl)-piperidine-4-carbonyl]-pyrrolidin-3-yl}-4-methoxy-N-methyl-3-trifluoromethyl-benzamide], for which the Ki was 0.7 nM.
The figure for `CN(C(=O)CC1CCCC1)[C@H]1CN(C(=O)C2CCN(C(=O)C3(C)CC3)CC2)C[C@@H]1c1ccc(Cl)c(Cl)c1` (racemic) [Example 113, 2-Cyclopentyl-N-{(3RS,4SR)-4-(3,4-dichloro-phenyl)-1-[1-(1-methyl-cyclopropanecarbonyl)-piperidine-4-carbonyl]-pyrrolidin-3-yl}-N-methyl-acetamide] is 2.9 nM; for `CN(C(=O)CCC1CC1)[C@H]1CN(C(=O)C2CCN(C(=O)C3(C)CC3)CC2)C[C@@H]1c1ccc(Cl)c(Cl)c1` (racemic) [Example 114, 3-Cyclopropyl-N-{(3RS,4SR)-4-(3,4-dichloro-phenyl)-1-[1-(1-methyl-cyclopropanecarbonyl)-piperidine-4-carbonyl]-pyrrolidin-3-yl}-N-methyl-propionamide] it is 17.2 nM; for `CN(C(=O)CC(C)(C)C)[C@H]1CN(C(=O)C2CCN(C(=O)C3(C)CC3)CC2)C[C@@H]1c1ccc(Cl)c(Cl)c1` (racemic) [Example 115, N-{(3RS,4SR)-4-(3,4-Dichloro-phenyl)-1-[1-(1-methyl-cyclopropanecarbonyl)-piperidine-4-carbonyl]-pyrrolidin-3-yl}-3,3,N-trimethyl-butyramide] it is 23 nM.
The figure for `CC(C)C(C(=O)N(C)[C@H]1CN(C(=O)C2CCN(C(=O)C3(C)CC3)CC2)C[C@@H]1c1ccc(Cl)c(Cl)c1)c1ccc(F)cc1` (mixture of isomers) [Example 116, N-{(3RS,4SR)-4-(3,4-Dichloro-phenyl)-1-[1-(1-methyl-cyclopropanecarbonyl)-piperidine-4-carbonyl]-pyrrolidin-3-yl}-2-(4-fluoro-phenyl)-3,N-dimethyl-butyramide] is 49.7 nM; for `COc1ccc(C(=O)N(C)[C@H]2CN(C(=O)C3CCN(CC(C)(C)C)CC3)C[C@@H]2c2ccc(Cl)cc2)cc1C(F)(F)F` (racemic) [Example 120, N-{(3RS,4SR)-4-(4-Chloro-phenyl)-1-[1-(2,2-dimethyl-propyl)-piperidine-4-carbonyl]-pyrrolidin-3-yl}-4-methoxy-N-methyl-3-trifluoromethyl-benzamide] it is 0.8 nM; for `CCN1CCC(C(=O)N2C[C@H](c3ccc(Cl)cc3)[C@@H](N(C)C(=O)c3ccc(OC)c(C(F)(F)F)c3)C2)CC1` (racemic) [Example 121, N-[(3RS,4SR)-4-(4-Chloro-phenyl)-1-(1-ethyl-piperidine-4-carbonyl)-pyrrolidin-3-yl]-4-methoxy-N-methyl-3-trifluoromethyl-benzamide] it is 5.1 nM.
Regarding `COc1ccc(C(=O)N[C@H]2CN(C(=O)C3CCN(C(=O)C4(C)CC4)CC3)C[C@@H]2c2ccc(Cl)cc2C)cc1C(F)(F)F` (racemic) [Example 122, N-{(3RS,4SR)-4-(4-Chloro-2-methyl-phenyl)-1-[1-(1-methyl-cyclopropanecarbonyl)-piperidine-4-carbonyl]-pyrrolidin-3-yl}-4-methoxy-3-trifluoromethyl-benzamide], the Ki was 82 nM.
The result for `CN(C(=O)CC1CCOCC1)[C@H]1CN(C(=O)C2CCN(C(=O)C3(C)CC3)CC2)C[C@@H]1c1ccc(Cl)c(Cl)c1` (racemic) [Example 124, N-{(3RS,4SR)-4-(3,4-Dichloro-phenyl)-1-[1-(1-methyl-cyclopropanecarbonyl)-piperidine-4-carbonyl]-pyrrolidin-3-yl}-N-methyl-2-(tetrahydro-pyran-4-yl)-acetamide] reads 13 nM; that for `CN(C(=O)C(C)(C)c1ccc(F)cc1)[C@H]1CN(C(=O)C2CCN(C(=O)C3(C)CC3)CC2)C[C@@H]1c1ccc(Cl)c(Cl)c1` (racemic) [Example 125, N-{(3RS,4SR)-4-(3,4-Dichloro-phenyl)-1-[1-(1-methyl-cyclopropanecarbonyl)-piperidine-4-carbonyl]-pyrrolidin-3-yl}-2-(4-fluoro-phenyl)-N-methyl-isobutyramide], 67.9 nM.
The result for `COc1ccc(C(=O)N(C)[C@H]2CN(C(=O)C3CCN(CCCSC)CC3)C[C@@H]2c2ccc(Cl)cc2)cc1C(F)(F)F` (racemic) [Example 126, N-{(3RS,4SR)-4-(4-Chloro-phenyl)-1-[1-(3-methylsulfanyl-propyl)-piperidine-4-carbonyl]-pyrrolidin-3-yl}-4-methoxy-N-methyl-3-trifluoromethyl-benzamide] reads 0.9 nM.
